Test results taken from patent US11697639B2, “Quaternary ammonium salt compound, preparation method therefor and use thereof” (WEST CHINA HOSPITAL, SICHUAN UNIVERSITY, priority 2018, dated 2023).
Counter-ions that a name gives are not always drawn.

What was measured:
Assay type in all cases: in vivo
rat's sciatic nerve [1] = test: Rat sciatic nerve block, sensory block tested with von Frey stimulator; conditions: 0.5 mL injected near sciatic nerve, test drugs 20 mmol/mL in distilled water, lidocaine 2%, levobupivacaine 0.75%; for Local anesthesia onset time (Median): 8 rats per group; for Time of sensory block (Median): von Frey
Method: (§1) For the dosage, the lidocaine group is 2% aqueous solution, the levobupivacaine group is 0.75% aqueous solution, and test drug groups are all distilled water solution at the concentration of 20 mmol/mL.
(§2) The injection volume for each rat or the control was 0.5 mL, which was guided by a nerve locator and injected near the rat's sciatic nerve. Using von Frey stimulator, the rats were stimulated the soles of the feet in the injected side, to observe the effect of local anesthesia. Meanwhile, Postural Extensor Thrust (PET) was used to evaluate the motor function of the rat: the rat was lifted vertically and the hindlimb in the injected side pedaled on the platform of the electronic balance. […] When the limb was completely paralyzed, the reading was the limb's own weight, about 20 g. If the measured value was more than half of the difference between the baseline and the limb weight, the motor function was regarded as recovery, and if the value was less than or equal to this difference, the motor function was regarded as loss.

rat's sciatic nerve [2] = test: Rat sciatic nerve block, motor function by Postural Extensor Thrust (PET); conditions: 0.5 mL injected near sciatic nerve, test drugs 20 mmol/mL in distilled water, lidocaine 2%, levobupivacaine 0.75%
Method: as §1, §2

back skin of rat = test: Local anesthetic effect by subcutaneous infiltration in rat back skin (Von Frey 100 g); conditions: 0.5 mL in saline, compound 6 mmol/L, bupivacaine 23 mmol/L, 10 rats per compound
Method: After the back of rat weighing 250-300 g was shaved and disinfected, a circle with a diameter of about 1.5 cm was drawn on the side of the exposed back, and the circle is divided into 6 equal parts. […] Among the Von Frey fiber yarns, the one with a strength of 100 g was bound to the needle for local skin stimulation. One minute After the drug was injected, the above method was used to stimulate in 6 divisions. […] If back skin contraction was observed, the local anesthetic effect was considered as loss. […] Each compound was tested with 10 rats.

CCCCN1CCCC[C@H]1C(=O)Nc1c(C)cccc1C [Levobupivacaine Hydrochloride, reference compound]
Local anesthesia onset time (Median) (rat's sciatic nerve [1]): 1 min | Time of sensory block (Median) (rat's sciatic nerve [1]): 2.5 h | Time of motor block (Median) (rat's sciatic nerve [2]): 2.5 h | Lasting time of local anesthesia (Median) (back skin of rat): 7 h | Local anesthesia onset time (Median) (back skin of rat): 1 min

CC[N+](C)(CCCN1CCCCC1C(=O)Nc1c(C)cccc1C)CC(=O)Nc1c(C)cccc1C (stereo not shown) [example 1]
Local anesthesia onset time (Median) (rat's sciatic nerve [1]): 3 min | Time of sensory block (Median) (rat's sciatic nerve [1]): 24 h | Time of motor block (Median) (rat's sciatic nerve [2]): 18 h | Lasting time of local anesthesia (Median) (back skin of rat): 34 h | Local anesthesia onset time (Median) (back skin of rat): 1 min

CCC[N+](CC)(CCCCCN1CCCCC1C(=O)Nc1c(C)cccc1C)CC(=O)Nc1c(C)cc([N+](=O)[O-])cc1C (stereo not shown) [example 3]
Local anesthesia onset time (Median) (rat's sciatic nerve [1]): 1 min | Time of sensory block (Median) (rat's sciatic nerve [1]): 27 h | Time of motor block (Median) (rat's sciatic nerve [2]): 10 h | Lasting time of local anesthesia (Median) (back skin of rat): 37 h | Local anesthesia onset time (Median) (back skin of rat): 1 min

CCC[N+](CC)(CCCCCCCCN1CCCCC1C(=O)Nc1c(C)cccc1C)CC(=O)Nc1c(C)ccc(Br)c1C (stereo not shown) [example 4]
Local anesthesia onset time (Median) (rat's sciatic nerve [1]): 1 min | Time of sensory block (Median) (rat's sciatic nerve [1]): 33 h | Time of motor block (Median) (rat's sciatic nerve [2]): 10 h | Lasting time of local anesthesia (Median) (back skin of rat): 44 h | Local anesthesia onset time (Median) (back skin of rat): 2 min

CCCC[N+](CC)(CCOCCN1CCCCC1C(=O)Nc1c(C)cccc1C)CC(=O)Nc1c(C)cccc1O (stereo not shown) [example 5]
Local anesthesia onset time (Median) (rat's sciatic nerve [1]): 6 min | Time of sensory block (Median) (rat's sciatic nerve [1]): 28 h | Time of motor block (Median) (rat's sciatic nerve [2]): 11 h | Lasting time of local anesthesia (Median) (back skin of rat): 68 h | Local anesthesia onset time (Median) (back skin of rat): 1 min

CC[N+](C)(CCCN1CCCCC1C(=O)Nc1c(C)cccc1C)CC(=O)Nc1c(C)ccc(Cl)c1C (stereo not shown) [example 6]
Local anesthesia onset time (Median) (rat's sciatic nerve [1]): 3 min | Time of sensory block (Median) (rat's sciatic nerve [1]): 30 h | Time of motor block (Median) (rat's sciatic nerve [2]): 19 h | Lasting time of local anesthesia (Median) (back skin of rat): 47 h | Local anesthesia onset time (Median) (back skin of rat): 1 min

CCC[N+](CC)(CCCCCCCCN1CCCCC1C(=O)Nc1c(C)cccc1C)CC(=O)Nc1c(C)cccc1OC (stereo not shown) [example 7]
Local anesthesia onset time (Median) (rat's sciatic nerve [1]): 2 min | Time of sensory block (Median) (rat's sciatic nerve [1]): 28 h | Time of motor block (Median) (rat's sciatic nerve [2]): 10 h | Lasting time of local anesthesia (Median) (back skin of rat): 57 h | Local anesthesia onset time (Median) (back skin of rat): 1 min

CCC[N+](C)(CCCCCN1CCCCC1C(=O)Nc1c(C)ccc(C#N)c1C)CC(=O)Nc1c(C)cccc1C (stereo not shown) [example 8]
Local anesthesia onset time (Median) (rat's sciatic nerve [1]): 1 min | Time of sensory block (Median) (rat's sciatic nerve [1]): 24 h | Time of motor block (Median) (rat's sciatic nerve [2]): 18 h | Lasting time of local anesthesia (Median) (back skin of rat): 33 h | Local anesthesia onset time (Median) (back skin of rat): 1 min

CC[N+](C)(CCCN(C)CC(=O)Nc1c(C)cccc1C)CC(=O)Nc1c(C)cccc1C (stereo not shown) [example 9]
Local anesthesia onset time (Median) (rat's sciatic nerve [1]): 5 min | Time of sensory block (Median) (rat's sciatic nerve [1]): 24 h | Time of motor block (Median) (rat's sciatic nerve [2]): 10 h | Lasting time of local anesthesia (Median) (back skin of rat): 28 h | Local anesthesia onset time (Median) (back skin of rat): 2 min

CCC[N+](CC)(CCCCCCCCN1CCCCC1C(=O)Nc1c(C)cccc1C)CC(=O)Nc1c(C)ccc(Br)c1C (stereo not shown) [example 11]
Local anesthesia onset time (Median) (rat's sciatic nerve [1]): 1 min | Time of sensory block (Median) (rat's sciatic nerve [1]): 34 h | Time of motor block (Median) (rat's sciatic nerve [2]): 11 h | Lasting time of local anesthesia (Median) (back skin of rat): 54 h | Local anesthesia onset time (Median) (back skin of rat): 1 min

CCC[N+](C)(CCCCCN1CCCCC1C(=O)Nc1c(C)cc(C)cc1C)CC(=O)Nc1c(C)cc(C#N)cc1C (stereo not shown) [example 13]
Local anesthesia onset time (Median) (rat's sciatic nerve [1]): 1 min | Time of sensory block (Median) (rat's sciatic nerve [1]): 25 h | Time of motor block (Median) (rat's sciatic nerve [2]): 17 h | Lasting time of local anesthesia (Median) (back skin of rat): 45 h | Local anesthesia onset time (Median) (back skin of rat): 1 min

CC[N+](C)(CCCN1CCCCC1C(=O)Nc1c(C)cccc1C)CC(=O)Nc1c(C)cccc1C.O=C(O)c1ccccc1.[Br-] (stereo not shown) [example 14]
Local anesthesia onset time (Median) (rat's sciatic nerve [1]): 3 min | Time of sensory block (Median) (rat's sciatic nerve [1]): 32 h | Time of motor block (Median) (rat's sciatic nerve [2]): 18 h

CCC[N+](CC)(CCCCCCCCN1CCCCC1C(=O)Nc1c(C)cccc1C)CC(=O)Nc1c(C)cccc1C.Cl.[Br-] (stereo not shown) [example 15]
Local anesthesia onset time (Median) (rat's sciatic nerve [1]): 2 min | Time of sensory block (Median) (rat's sciatic nerve [1]): 38 h | Time of motor block (Median) (rat's sciatic nerve [2]): 25 h

CC[N+](C)(CCCN1CCCC[C@@H]1C(=O)Nc1c(C)cccc1C)CC(=O)Nc1c(C)cccc1C (stereo partly shown) [example 16]
Local anesthesia onset time (Median) (rat's sciatic nerve [1]): 1 min | Time of sensory block (Median) (rat's sciatic nerve [1]): 25 h | Time of motor block (Median) (rat's sciatic nerve [2]): 19 h

CCC[N+](CC)(CCCCCCCCN1CCCCC1C(=O)Nc1c(C)cccc1C)CC(=O)Nc1c(C)cccc1C.[Br-] (stereo not shown) [example 17]
Local anesthesia onset time (Median) (rat's sciatic nerve [1]): 5 min | Time of sensory block (Median) (rat's sciatic nerve [1]): 24 h | Time of motor block (Median) (rat's sciatic nerve [2]): 17 h

Br.CCC[N+](CC)(CCCN1CCCCC1C(=O)Nc1c(C)ccc(S)c1C)CC(=O)Nc1c(C)cc(O)cc1C.[Br-] (stereo not shown) [example 18]
Local anesthesia onset time (Median) (rat's sciatic nerve [1]): 1 min | Time of sensory block (Median) (rat's sciatic nerve [1]): 31 h | Time of motor block (Median) (rat's sciatic nerve [2]): 21 h

CCC[N+](CC)(CCCCCCCCN1CCCC[C@H]1C(=O)Nc1c(C)cccc1C)CC(=O)Nc1c(C)cccc1C.[Br-] (stereo partly shown) [example 19]
Local anesthesia onset time (Median) (rat's sciatic nerve [1]): 1 min | Time of sensory block (Median) (rat's sciatic nerve [1]): 29 h | Time of motor block (Median) (rat's sciatic nerve [2]): 22 h

CCC[N+](CC)(CCCCN1C(C)CCCC1C(=O)Nc1c(C)cccc1C(C)C)CC(=O)Nc1c(C)cccc1C(C)C.[Br-] (stereo not shown) [example 20]
Local anesthesia onset time (Median) (rat's sciatic nerve [1]): 2 min | Time of sensory block (Median) (rat's sciatic nerve [1]): 25 h | Time of motor block (Median) (rat's sciatic nerve [2]): 20 h

CCC[N+](CC)(CCCCCCCCN1CCCCC1C(=O)Nc1c(C)cccc1C)CC(=O)Nc1c(C)cccc1C.[Br-] (stereo not shown) [example 21]
Local anesthesia onset time (Median) (rat's sciatic nerve [1]): 1 min | Time of sensory block (Median) (rat's sciatic nerve [1]): 24 h | Time of motor block (Median) (rat's sciatic nerve [2]): 18 h

CCC[N+](CC)(CCCCCCCN1CCC(OC)C[C@@H]1C(=O)Nc1c(C)cccc1C)CC(=O)Nc1c(C)cccc1C.[Br-] (stereo partly shown) [example 22]
Local anesthesia onset time (Median) (rat's sciatic nerve [1]): 3 min | Time of sensory block (Median) (rat's sciatic nerve [1]): 29 h | Time of motor block (Median) (rat's sciatic nerve [2]): 18 h

CCCCN(C(=O)[C@@H]1CCCCN1CCCCCCC[N+](CC)(CCC)CC(=O)Nc1c(C)cccc1C)c1c(C)cccc1C.[Br-] (stereo partly shown) [example 23]
Local anesthesia onset time (Median) (rat's sciatic nerve [1]): 2 min | Time of sensory block (Median) (rat's sciatic nerve [1]): 35 h | Time of motor block (Median) (rat's sciatic nerve [2]): 28 h

CCC[N+](CC)(CCCCCCCN1CCCCC1C(=O)Nc1c(C)ccc(Cl)c1C)CC(=O)Nc1c(C)ccc(C#N)c1C.[Br-] (stereo not shown) [example 24]
Local anesthesia onset time (Median) (rat's sciatic nerve [1]): 1 min | Time of sensory block (Median) (rat's sciatic nerve [1]): 24 h | Time of motor block (Median) (rat's sciatic nerve [2]): 16 h

CCC[N+](CC)(CCCCCCCCN1CCCC[C@@H]1C(=O)Nc1c(C)cccc1C)CC(=O)Nc1c(C)cccc1C.O=C(O)CC(O)(CC(=O)O)C(=O)O.[Br-] (stereo partly shown) [example 25]
Local anesthesia onset time (Median) (rat's sciatic nerve [1]): 5 min | Time of sensory block (Median) (rat's sciatic nerve [1]): 32 h | Time of motor block (Median) (rat's sciatic nerve [2]): 24 h

CCC[N+](CC)(CCCCCCCCN1CCCC1C(=O)Nc1c(C)ccc(C#N)c1C)CC(=O)Nc1c(C)ccc(C(=O)OC)c1C.[Br-] (stereo not shown) [example 26]
Local anesthesia onset time (Median) (rat's sciatic nerve [1]): 3 min | Time of sensory block (Median) (rat's sciatic nerve [1]): 25 h | Time of motor block (Median) (rat's sciatic nerve [2]): 18 h

CCCC[N+](CC)(CCCCCCN1CCCCC1C(=O)Nc1c(C)cc([N+](=O)[O-])cc1C)CC(=O)Nc1c(C)cc(C(=O)O)cc1C.[Br-] (stereo not shown) [example 27]
Local anesthesia onset time (Median) (rat's sciatic nerve [1]): 2 min | Time of sensory block (Median) (rat's sciatic nerve [1]): 28 h | Time of motor block (Median) (rat's sciatic nerve [2]): 22 h

CCC[N+](CC)(CCCCCCCN1CCCC[C@@H]1C(=O)Nc1c(C)ccc(C(=O)O)c1C)CC(=O)Nc1c(C)ccc(OC)c1C.[Br-] (stereo partly shown) [example 28]
Local anesthesia onset time (Median) (rat's sciatic nerve [1]): 4 min | Time of sensory block (Median) (rat's sciatic nerve [1]): 26 h | Time of motor block (Median) (rat's sciatic nerve [2]): 18 h

CCC[N+](CC)(CCCCCCCCN1CCCCC1C(=O)Nc1c(C)cc(OC)cc1C)CC(=O)Nc1c(C)ccc([N+](=O)[O-])c1C.[Br-] (stereo not shown) [example 29]
Local anesthesia onset time (Median) (rat's sciatic nerve [1]): 1 min | Time of sensory block (Median) (rat's sciatic nerve [1]): 33 h | Time of motor block (Median) (rat's sciatic nerve [2]): 28 h

CCC[N+](CC)(CCCN1CCCC[C@@H]1C(=O)Nc1c(C)ccc(C(=O)OC)c1C)CC(=O)Nc1c(C)ccc(N)c1C.O=C(O)C(O)C(O)C(=O)O.[Br-] (stereo partly shown) [example 30]
Local anesthesia onset time (Median) (rat's sciatic nerve [1]): 4 min | Time of sensory block (Median) (rat's sciatic nerve [1]): 28 h | Time of motor block (Median) (rat's sciatic nerve [2]): 19 h
